According to US20120083522A1, “MODULATION OF INFLAMMATORY RESPONSES BY FACTOR XI” (Isis Pharmaceuitcals, inc., priority 2009, published 2012):
In the oligonucleotide strings, read from the 5' end, every base follows the letter of its sugar. An asterisk marks phosphorothioate; unmarked linkages are phosphodiester. Other units and linkages are bracketed, terminal groups are in braces. A string of capitals states the bases alone. e = 2'-O-(2-methoxyethyl) (MOE); [5mC] = 5-methylcytosine; d = 2'-deoxy (DNA)

System: human Factor XI mRNA
Test: Antisense inhibition in HepG2 cells by microwalk gapmers, 75 nM, lipofectin (Example 3)
Format: cell-based
Conditions: HepG2, 75 nM, approximately 24 hours, nucleobases 656 to 704 of SEQ ID NO: 1
Description: These gapmers were designed by creating gapmers shifted slightly upstream and downstream (i.e. “microwalk”) of the original gapmers from Table 3. Gapmers were also created with various motifs, e.g. 5-10-5 MOE, 3-14-3 MOE, and 2-13-5 MOE. These gapmers were tested in vitro. Cultured HepG2 cells at a density of 10,000 cells per well were transfected using lipofectin reagent with 75 nM antisense oligonucleotide. After a treatment period of approximately 24 hours, RNA was isolated from the cells and Factor XI mRNA levels were measured by quantitative real-time PCR. Factor XI mRNA levels were adjusted according to total RNA content, as measured by RIBOGREEN®. Results are presented as percent inhibition of Factor XI, relative to untreated control cells.
The chimeric antisense oligonucleotides in Table 4 were designed as 5-10-5 MOE, 3-14-3 MOE, and 2-13-5 MOE gapmers. The first listed gapmers in Table 4 are the original gapmers (see Table 3) from which the remaining gapmers were designed via microwalk and are designated by an asterisk. The 5-10-5 gapmers are 20 nucleotides in length, wherein the central gap segment is comprised of 10 2′-deoxynucleotides and is flanked on both sides (in the 5′ and 3′ directions) by wings comprising 5 nucleotides each. The 3-14-3 gapmers are 20 nucleotides in length, wherein the central gap segment is comprised of 14 2′-deoxynucleotides and is flanked on both sides (in the 5′ and 3′ directions) by wings comprising 3 nucleotides each. The 2-13-5 gapmers are 20 nucleotides in length, wherein the central gap segment is comprised of 13 2′-deoxynucleotides. The central gap is flanked on the 5′ end with a wing comprising 2 nucleotides and on the 3′ end with a wing comprising 5 nucleotides. For each of the motifs (5-10-5, 3-14-3, and 2-13-5), each nucleotide in the 5′ wing segment and each nucleotide in the 3′ wing segment has a 2′-MOE modification. The internucleoside linkages throughout each gapmer are phosphorothioate (P═S) linkages. All cytidine residues throughout each gapmer are 5-methylcytidines. “Target start site” indicates the 5′-most nucleotide to which the gapmer is targeted. “Target stop site” indicates the 3′-most nucleotide to which the gapmer is targeted. Each gapmer listed in Table 4 is targeted to SEQ ID NO: 1 (GENBANK Accession No. NM_000128.3).

For “416894 (antisense eA*eT*eG*d[5mC]*d[5mC]*d[5mC]*dT*dT*d[5mC]*dA*dT*dG*dT*d[5mC]*dT*dA*dG*eG*eT*e[5mC]) [compound 416894]”, the “% inhibition” value was 84%.

Same assay, conditions: HepG2 cells, 75 nM, oligonucleotides targeted to nucleobases 738 to 762 of SEQ ID NO: 1

First: 416898 (antisense e[5mC]*e[5mC]*eG*dT*dG*d[5mC]*dA*dT*d[5mC]*dT*dT*dT*d[5mC]*dT*dT*dG*dG*e[5mC]*eA*eT) [compound 416898]
Second: 416899 (antisense eT*e[5mC]*e[5mC]*dG*dT*dG*d[5mC]*dA*dT*d[5mC]*dT*dT*dT*d[5mC]*dT*dT*dG*eG*e[5mC]*eA) [compound 416899]
The “% inhibition of human Factor XI mRNA levels” value of the first is higher: 88% for the first, 86% for the second.

Compared with “416900 (antisense eA*eT*e[5mC]*d[5mC]*dG*dT*dG*d[5mC]*dA*dT*d[5mC]*dT*dT*dT*d[5mC]*dT*dT*eG*eG*e[5mC]) [compound 416900]”, “416901 (antisense e[5mC]*eA*eT*d[5mC]*d[5mC]*dG*dT*dG*d[5mC]*dA*dT*d[5mC]*dT*dT*dT*d[5mC]*dT*eT*eG*eG) [compound 416901]” is lower in “% inhibition of human Factor XI mRNA levels” value: 90% for the first, 65% for the second.

First: 416902 (antisense eT*e[5mC]*eA*dT*d[5mC]*d[5mC]*dG*dT*dG*d[5mC]*dA*dT*d[5mC]*dT*dT*dT*d[5mC]*eT*eT*eG) [compound 416902]
Second: 416903 (antisense eG*eT*e[5mC]*dA*dT*d[5mC]*d[5mC]*dG*dT*dG*d[5mC]*dA*dT*d[5mC]*dT*dT*dT*e[5mC]*eT*eT) [compound 416903]
The “% inhibition of human Factor XI mRNA levels” value of the first is lower: 46% for the first, 88% for the second.

Same assay, conditions: HepG2 cells, 75 nM, oligonucleotides targeted to nucleobases 1018 to 1042 of SEQ ID NO: 1

First: 416904 (antisense e[5mC]*e[5mC]*eG*dG*dG*dA*dT*dG*dA*dT*dG*dA*dG*dT*dG*d[5mC]*dA*eG*eA*eT) [compound 416904]
Second: 416905 (antisense eA*e[5mC]*e[5mC]*dG*dG*dG*dA*dT*dG*dA*dT*dG*dA*dG*dT*dG*d[5mC]*eA*eG*eA) [compound 416905]
The “% inhibition of human Factor XI mRNA levels” value of the first is higher: 90% for the first, 85% for the second.

Going from “416906 (antisense eA*eA*e[5mC]*d[5mC]*dG*dG*dG*dA*dT*dG*dA*dT*dG*dA*dG*dT*dG*e[5mC]*eA*eG) [compound 416906]” to “416907 (antisense e[5mC]*eA*eA*d[5mC]*d[5mC]*dG*dG*dG*dA*dT*dG*dA*dT*dG*dA*dG*dT*eG*e[5mC]*eA) [compound 416907]”, the “% inhibition of human Factor XI mRNA levels” value rises from 88% to 90%.

Same assay, conditions: HepG2 cells, 75 nM, oligonucleotides targeted to nucleobases 1062 to 1091 of SEQ ID NO: 1

Going from “416844 (antisense e[5mC]*eT*eT*eT*eG*dA*dG*dA*dT*dT*d[5mC]*dT*dT*dT*dG*eG*eG*e[5mC]*e[5mC]*eA) [compound 416844]” to “416845 (antisense eT*e[5mC]*eT*eT*eT*dG*dA*dG*dA*dT*dT*d[5mC]*dT*dT*dT*eG*eG*eG*e[5mC]*e[5mC]) [compound 416845]”, the “% inhibition of human Factor XI mRNA levels” value falls from 90% to 86%.

First: 416846 (antisense eT*eT*e[5mC]*eT*eT*dT*dG*dA*dG*dA*dT*dT*d[5mC]*dT*dT*eT*eG*eG*eG*e[5mC]) [compound 416846]
Second: 416847 (antisense eT*eT*eT*e[5mC]*eT*dT*dT*dG*dA*dG*dA*dT*dT*d[5mC]*dT*eT*eT*eG*eG*eG) [compound 416847]
The “% inhibition of human Factor XI mRNA levels” value of the first is higher: 72% for the first, 50% for the second.

Going from “416909 (antisense eA*eT*eT*d[5mC]*dT*dT*dT*dG*dG*dG*d[5mC]*d[5mC]*dA*dT*dT*d[5mC]*d[5mC]*eT*eG*eG) [compound 416909]” to “416910 (antisense eG*eA*eT*dT*d[5mC]*dT*dT*dT*dG*dG*dG*d[5mC]*d[5mC]*dA*dT*dT*d[5mC]*e[5mC]*eT*eG) [compound 416910]”, the “% inhibition of human Factor XI mRNA levels” value rises from 78% to 90%.

First: 416911 (antisense eA*eG*eA*dT*dT*d[5mC]*dT*dT*dT*dG*dG*dG*d[5mC]*d[5mC]*dA*dT*dT*e[5mC]*e[5mC]*eT) [compound 416911]
Second: 416912 (antisense eG*eA*eG*dA*dT*dT*d[5mC]*dT*dT*dT*dG*dG*dG*d[5mC]*d[5mC]*dA*dT*eT*e[5mC]*e[5mC]) [compound 416912]
The “% inhibition of human Factor XI mRNA levels” value of the first is lower: 90% for the first, 92% for the second.

Going from “416913 (antisense eT*eG*eA*dG*dA*dT*dT*d[5mC]*dT*dT*dT*dG*dG*dG*d[5mC]*d[5mC]*dA*eT*eT*e[5mC]) [compound 416913]” to “416914 (antisense eT*eT*eG*dA*dG*dA*dT*dT*d[5mC]*dT*dT*dT*dG*dG*dG*d[5mC]*d[5mC]*eA*eT*eT) [compound 416914]”, the “% inhibition of human Factor XI mRNA levels” value falls from 93% to 87%.

Going from “416915 (antisense eT*eT*eT*dG*dA*dG*dA*dT*dT*d[5mC]*dT*dT*dT*dG*dG*dG*d[5mC]*e[5mC]*eA*eT) [compound 416915]” to “416916 (antisense e[5mC]*eT*eT*dT*dG*dA*dG*dA*dT*dT*d[5mC]*dT*dT*dT*dG*dG*dG*e[5mC]*e[5mC]*eA) [compound 416916]”, the “% inhibition of human Factor XI mRNA levels” value rises from 79% to 91%.

Compared with “416917 (antisense eT*e[5mC]*eT*dT*dT*dG*dA*dG*dA*dT*dT*d[5mC]*dT*dT*dT*dG*dG*eG*e[5mC]*e[5mC]) [compound 416917]”, “416918 (antisense eT*eT*e[5mC]*dT*dT*dT*dG*dA*dG*dA*dT*dT*d[5mC]*dT*dT*dT*dG*eG*eG*e[5mC]) [compound 416918]” is lower in “% inhibition of human Factor XI mRNA levels” value: 92% for the first, 63% for the second.

With “416919 (antisense eT*eT*eT*d[5mC]*dT*dT*dT*dG*dA*dG*dA*dT*dT*d[5mC]*dT*dT*dT*eG*eG*eG) [compound 416919]” the “% inhibition of human Factor XI mRNA levels” value was 27%.

Same assay, conditions: HepG2 cells, 75 nM, oligonucleotides targeted to nucleobases 1275 to 1318 of SEQ ID NO: 1

“416920 (antisense eA*e[5mC]*eA*dG*dT*dT*dT*d[5mC]*dT*dG*dG*d[5mC]*dA*dG*dG*d[5mC]*d[5mC]*eT*e[5mC]*eG) [compound 416920]” and “416921 (antisense e[5mC]*eA*e[5mC]*dA*dG*dT*dT*dT*d[5mC]*dT*dG*dG*d[5mC]*dA*dG*dG*d[5mC]*e[5mC]*eT*e[5mC]) [compound 416921]” are the same in “% inhibition of human Factor XI mRNA levels” value: 88% for the first, 88% for the second.

Going from “416927 (antisense eT*eT*eG*dG*dT*dG*d[5mC]*dA*d[5mC]*dA*dG*dT*dT*dT*d[5mC]*dT*dG*eG*e[5mC]*eA) [compound 416927]” to “416928 (antisense eA*eT*eT*dG*dG*dT*dG*d[5mC]*dA*d[5mC]*dA*dG*dT*dT*dT*d[5mC]*dT*eG*eG*e[5mC]) [compound 416928]”, the “% inhibition of human Factor XI mRNA levels” value rises from 87% to 91%.

Going from “416929 (antisense e[5mC]*eA*eT*dT*dG*dG*dT*dG*d[5mC]*dA*d[5mC]*dA*dG*dT*dT*dT*d[5mC]*eT*eG*eG) [compound 416929]” to “416930 (antisense eG*e[5mC]*eA*dT*dT*dG*dG*dT*dG*d[5mC]*dA*d[5mC]*dA*dG*dT*dT*dT*e[5mC]*eT*eG) [compound 416930]”, the “% inhibition of human Factor XI mRNA levels” value rises from 83% to 87%.

“416932 (antisense e[5mC]*eG*eG*d[5mC]*dA*dT*dT*dG*dG*dT*dG*d[5mC]*dA*d[5mC]*dA*dG*dT*eT*eT*e[5mC]) [compound 416932]” and “416933 (antisense eA*e[5mC]*eG*dG*d[5mC]*dA*dT*dT*dG*dG*dT*dG*d[5mC]*dA*d[5mC]*dA*dG*eT*eT*eT) [compound 416933]” are the same in “% inhibition of human Factor XI mRNA levels” value: 92% for the first, 92% for the second.

First: 416934 (antisense eG*eA*e[5mC]*dG*dG*d[5mC]*dA*dT*dT*dG*dG*dT*dG*d[5mC]*dA*d[5mC]*dA*eG*eT*eT) [compound 416934]
Second: 416935 (antisense eG*eG*eA*d[5mC]*dG*dG*d[5mC]*dA*dT*dT*dG*dG*dT*dG*d[5mC]*dA*d[5mC]*eA*eG*eT) [compound 416935]
The “% inhibition of human Factor XI mRNA levels” value of the first is lower: 90% for the first, 92% for the second.

Compared with “416936 (antisense e[5mC]*eG*eG*dA*d[5mC]*dG*dG*d[5mC]*dA*dT*dT*dG*dG*dT*dG*d[5mC]*dA*e[5mC]*eA*eG) [compound 416936]”, “416937 (antisense eG*e[5mC]*eG*dG*dA*d[5mC]*dG*dG*d[5mC]*dA*dT*dT*dG*dG*dT*dG*d[5mC]*eA*e[5mC]*eA) [compound 416937]” is higher in “% inhibition of human Factor XI mRNA levels” value: 89% for the first, 93% for the second.

In the case of “416938 (antisense eA*eG*e[5mC]*dG*dG*dA*d[5mC]*dG*dG*d[5mC]*dA*dT*dT*dG*dG*dT*dG*e[5mC]*eA*e[5mC]) [compound 416938]”, the “% inhibition of human Factor XI mRNA levels” value is reported as 90%.
